Measured values as given in ChEMBL document CHEMBL1156625, “NMR screening for lead compounds using tryptophan-mutated proteins” (J Med Chem, 2008).

Legend:
[1] = biological target: Epidermal growth factor receptor (Homo sapiens, UniProt P00533); assay: Inhibition of EGFR
[2] = Inhibition of PKC
[3] = Inhibition of PKA
[4] = biological target: Cyclin-dependent kinase 2 (Homo sapiens, UniProt P24941); assay: Binding affinity to CDK2

Epidermal growth factor receptor, sequence (P00533 whole entry): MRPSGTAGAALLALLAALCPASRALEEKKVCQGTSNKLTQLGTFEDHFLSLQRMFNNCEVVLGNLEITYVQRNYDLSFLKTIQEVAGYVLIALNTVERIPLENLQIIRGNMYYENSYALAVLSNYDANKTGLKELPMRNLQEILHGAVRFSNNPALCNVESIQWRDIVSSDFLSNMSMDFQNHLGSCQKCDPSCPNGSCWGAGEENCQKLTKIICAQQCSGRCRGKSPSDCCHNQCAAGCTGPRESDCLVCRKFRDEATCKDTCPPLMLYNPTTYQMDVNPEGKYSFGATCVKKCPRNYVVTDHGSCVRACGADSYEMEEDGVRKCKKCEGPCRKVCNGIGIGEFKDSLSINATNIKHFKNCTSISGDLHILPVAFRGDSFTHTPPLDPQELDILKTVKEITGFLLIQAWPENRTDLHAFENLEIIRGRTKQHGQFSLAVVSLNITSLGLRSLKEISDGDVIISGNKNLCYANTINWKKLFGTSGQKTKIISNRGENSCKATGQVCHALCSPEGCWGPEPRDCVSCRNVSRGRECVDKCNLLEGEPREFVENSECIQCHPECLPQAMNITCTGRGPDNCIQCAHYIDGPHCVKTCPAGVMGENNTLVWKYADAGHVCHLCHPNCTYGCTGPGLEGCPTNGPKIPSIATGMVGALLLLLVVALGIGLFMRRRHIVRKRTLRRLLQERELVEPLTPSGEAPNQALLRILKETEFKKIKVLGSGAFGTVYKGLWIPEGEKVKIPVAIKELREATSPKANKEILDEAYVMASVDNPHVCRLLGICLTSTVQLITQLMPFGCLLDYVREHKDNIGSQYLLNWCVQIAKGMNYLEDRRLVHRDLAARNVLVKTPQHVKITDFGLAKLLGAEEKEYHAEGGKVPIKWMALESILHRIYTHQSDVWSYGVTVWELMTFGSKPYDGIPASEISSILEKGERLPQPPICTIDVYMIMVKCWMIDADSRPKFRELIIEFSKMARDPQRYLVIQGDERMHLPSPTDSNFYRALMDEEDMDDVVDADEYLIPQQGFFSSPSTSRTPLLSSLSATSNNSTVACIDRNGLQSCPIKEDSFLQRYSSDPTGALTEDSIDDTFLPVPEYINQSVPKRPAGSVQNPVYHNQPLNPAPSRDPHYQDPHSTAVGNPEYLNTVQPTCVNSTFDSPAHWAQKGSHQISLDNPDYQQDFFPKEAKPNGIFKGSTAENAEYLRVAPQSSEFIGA

O=C(/C=C/c1ccc(O)c(O)c1)c1ccc(O)cc1O [BUTEIN]
IC50 [1]: 16 µM | IC50 [2]: > 500 µM | IC50 [3]: > 500 µM | Kd [4]: 100 µM
